Source: article PMC8379256, “A xanthene derivative, DS20060511, attenuates glucose intolerance by inducing skeletal muscle-specific GLUT4 translocation in mice” (Communications Biology, 2021)
Several values for one entry are separate records, joined by “and”; a condition that tells them apart may be missing. Equal entries are not always repeated. Where two headings read alike, the source gives them in different places.

How the values were obtained:
db/db mice = assay: Repeated (28-day) DS20060511 treatment of db/db mice; type: in vivo, mouse; set-up: Blood glucose after refeeding AUC: unit not given here; conditions: db/db, 10 mg/kg, 10 mg/kg; for Blood glucose after refeeding: individual animals
Experimental: db/db mice were acclimatized to a 6 h restricted feeding pattern from 10 am to 4 pm prior to the start of the experiment. For 28 days from 6 weeks of age, the mice received oral administration of 10 mg kg^−^1 of DS20060511 or vehicle once a day, 15 min prior to their feeding. On day 1 and day 28, the blood glucose levels were measured between 10 am to 4 pm. Blood glucose levels were measured using Glutest Every in blood samples collected from the tail vein. Daily food intake was monitored throughout the study, and the body weight, blood glucose, and plasma insulin were measured on day 1 and day 28. The hemoglobin A1c (HbA1c) level was also measured with a HLC-723G8 Automated Glycohemoglobin Analyzer on day 1 and day 28 (Tosoh, Tokyo, Japan). The triceps surae muscle (skeletal muscle), heart, epididymal WAT, and liver were excised immediately after euthanasia, and the tissue weights were measured on day 29. The glycogen contents of the muscle, heart, and liver were measured as described previously,[52] with some modifications. In brief, each tissue sample (50–100 mg) was weighed and boiled in 0.75 mL of 8 M KOH. After cooling, 0.25 mL of 1 M Na2SO4, followed by 2 mL of 99.5% ethanol, was added to precipitate the glycogen. The samples were centrifuged and the glycogen precipitates were dissolved in distilled water. Glycogen was degraded to glucose by treatment with amyloglucosidase (Sigma–Aldrich) at 55 °C for 60 min, and the glucose concentration was determined with Glucose CII Test Wako (FUJIFILM Wako Pure Chemical).

[1] = tested on: isolated skeletal muscles; assay: 2-DG uptake with muscle contraction (5 Hz electrical stimulation) in isolated muscles; set-up: species or system mouse; conditions: for IC 2DOG: incubation 10 min
Experimental: The soleus or EDL muscle was removed from anesthetized mice (isoflurane anesthesia) that had been denied access to food overnight, and incubated with oxygenated (95% O2/5% CO2) Krebs-Henseleit Bicarbonate (KHB) buffer (118.1 mM NaCl, 4.7 mM KCl, 1.1 mM KH2PO4, 1.2 mM MgSO4, 2.5 mM CaCl2, and 25 mM NaHCO3, pH7.4) in the presence of 11.1 mM glucose at 37 °C. The muscle specimens were then treated with the indicated concentrations of the compounds in KHB buffer containing 11.1 mM glucose and 8 mM mannitol for 10 min at 37 °C. Thereafter, the muscles were rinsed with KHB buffer containing 8 mM mannitol and the compounds for 5 min at 37 °C. Lastly, the muscles were treated with the compounds in KHB buffer containing 1 mM 2-DG (with 0.3 μCi mL^−1 [^3H]-2-DG) and 8 mM mannitol (with 0.03 μCi mL^−1 [^14C]-mannitol) for 10 min at 37 °C. After the muscle specimens were washed, they were lysed with 1 N NaOH and neutralized with 1 N HCl. The ^14C- and ^3H-specific activities were counted with a liquid scintillation counter. The specific uptake of 2-DG was calculated by subtracting the nonspecific uptake of mannitol from the total 2-DG uptake. To investigate the effects of muscle contraction, muscle contraction was induced by electrical stimulation with 5 Hz (1 ms pulse duration, 100 V) for 10 min (SEN-5201, Nihon Koden, Tokyo, Japan).

[2] = Pharmacokinetics: plasma concentration after oral administration; type: in vivo, mouse; conditions: for concentration at 0.5 hr / concentration at 1.25 hr / concentration at 2 hr / concentration at 4 hr / concentration at 6 hr: plasma, individual mice; for concentration at 0.5 hr: read-out: Conc. (µM) 0.5 hr; for concentration at 1.25 hr: read-out: Conc. (µM) 1.25 hr; for concentration at 2 hr: read-out: Conc. (µM) 2 hr; for concentration at 4 hr: read-out: Conc. (µM) 4 hr; for concentration at 6 hr: read-out: Conc. (µM) 6 hr; for maximal plasma concentration: at 30 min
Experimental: C57BL/6 mice that had been denied access to food overnight received the indicated oral dose of DS20060511, and blood samples were collected from the tail vein at the indicated timepoints. Plasma samples for quantitation of DS20060511 were prepared by centrifugation. Another group of mice received oral administration DS20060511 (30 mg kg^−1) and euthanized 75 min later. The soleus and gastrocnemius muscles, heart, and inguinal WAT were removed and homogenized in water (5 vol.) for quantitation of the drug concentrations. Plasma samples and tissue homogenates were analyzed by LC-MS/MS (Nexera MP System, SHIMADZU, Kyoto, Japan; API4000 System, SCIEX, Framingham, MA). The tissue concentrations of the compound were calculated by assuming the volume of 1 g of tissue is 1 mL. Evaluation of the metabolic stability of the compound to mouse and human cytochrome P450 (CYP) was conducted as follows. The test compound (1 μM) was incubated with pooled liver microsomes (0.1 mg mL^−1) in sodium phosphate buffer (100 mM, pH 7.4) at 37 °C with an NADPH generating system: β-nicotinamide adenine dinucleotide phosphate (β-NADP) 1 mM, D-glucose 6-phosphate (G-6-P) 10 mM, glucose 6-phosphate dehydrogenase (G-6-PDH) 1 U mL^−1, and magnesium chloride 3.3 mM. After 30 min incubation, the reaction was terminated by addition of acetonitrile and samples were analyzed by LC-MS/MS. The results were expressed as the amount of compound remaining (expressed as a percentage), based on the ratio of the relative area to that in the control (without reaction).

[3] = DS20060511 1 μM, electrical stimulation +, muscles #1-3
[4] = C57BL/6, mouse, po, 1 mg/kg, 1 mg/kg oral
[5] = C57BL/6, mouse, po, 30 mg/kg, 30 mg/kg oral

For COc1ccc2c(C)c(C(=O)O)ccc2c1C1C2=C(CC(C)(C)CC2=O)OC2=C1C(=O)CC(C)(C)C2 [DS20060511], the “Blood glucose after refeeding” value (db/db mice; Day 28, 6 hr) was 334 mg/dL and 357 mg/dL and 336 mg/dL and 316 mg/dL and 282 mg/dL and 356 mg/dL, the “Blood glucose after refeeding” value (db/db mice; Day 28, -0.25 hr) was 157 mg/dL and 175 mg/dL and 184 mg/dL and 155 mg/dL and 151 mg/dL and 135 mg/dL and the “Blood glucose after refeeding AUC” value (db/db mice; Day 28, individual animals) was 1526.0 and 1424.3 and 1491.8 and 1462.3 and 1397.8 and 1875.8. For the same compound, the “IC 2DOG” value [1, 3] was 385 nmol/g and 372 nmol/g and 382 nmol/g, the “Raio (2-DG uptake relative to unstimulated control)” value [1, 3] was 2.15 and 2.08 and 2.17 and the “IC 2DOG” value ([1]; DS20060511 10 μM, electrical stimulation +, muscles #1-3) was 366 nmol/g and 368 nmol/g and 397 nmol/g. For the same compound, the “2-DG uptake with electrical muscle stimulation” value ([1]; vs electrical stimulation alone, Fig. 6a) was “elevated to a greater degree”, the concentration at 0.5 hr [2, 4] was 0.6 µM and the concentration at 1.25 hr [2, 4] was 0.23 µM. It also gave a concentration at 2 hr [2, 4] of 0 µM, a concentration at 4 hr [2, 4] of 0 µM and a concentration at 6 hr [2, 4] of 0 µM. It also gave a concentration at 4 hr ([2]; C57BL/6, mouse, po, 10 mg/kg, 10 mg/kg oral) of 1.2 µM, a concentration at 0.5 hr [2, 5] of 77.7 µM and a concentration at 1.25 hr [2, 5] of 49.6 µM. It also gave a concentration at 2 hr [2, 5] of 35 µM, a maximal plasma concentration ([2]; oral 1 mg kg−1, normal mice) of 0.6 µM and a maximal plasma concentration ([2]; oral 10 mg kg−1) of 16.5 µM. The maximal plasma concentration ([2]; oral 30 mg kg−1) was 71.4 µM, the concentration at 0.5 hr ([2]; 1 mg/kg oral, 1 mg/kg) was 0.5 µM and 0.44 µM and 0.65 µM and the concentration at 1.25 hr ([2]; 1 mg/kg oral, 1 mg/kg) was 0.268 µM and 0.4 µM and 0.221 µM. For the same compound, the concentration at 0.5 hr ([2]; 10 mg/kg oral, 10 mg/kg) was 17.9 µM and 8.3 µM and 19.0 µM and 20.9 µM, the concentration at 1.25 hr ([2]; 10 mg/kg oral, 10 mg/kg) was 3.9 µM and 5.3 µM and 9.9 µM and 11.4 µM and the concentration at 2 hr ([2]; 10 mg/kg oral, 10 mg/kg) was 7.0 µM and 2.1 µM and 5.0 µM and 6.6 µM. The concentration at 4 hr ([2]; 10 mg/kg oral, 10 mg/kg) was 0.6 µM and 0.8 µM and 0.7 µM, the concentration at 6 hr ([2]; 10 mg/kg oral, 10 mg/kg) was 0.285 µM and 0.0 µM and 0.323 µM and the concentration at 0.5 hr ([2]; 30 mg/kg oral, 30 mg/kg) was 74.9 µM and 69.3 µM and 63.8 µM. The concentration at 1.25 hr ([2]; 30 mg/kg oral, 30 mg/kg) was 41.0 µM and 53.8 µM, the concentration at 2 hr ([2]; 30 mg/kg oral, 30 mg/kg) was 28.7 µM and 34.5 µM and 44.1 µM and the concentration at 4 hr ([2]; 30 mg/kg oral, 30 mg/kg) was 6.7 µM and 5.3 µM and 8.2 µM and 10.7 µM. The concentration at 6 hr ([2]; 30 mg/kg oral, 30 mg/kg) was 1.9 µM and 1.8 µM and 1.0 µM and 3.0 µM.
